Assay results: PubChem BioAssay AID248 (DTP/NCI, 2004)
Inconclusive results and toxic doses are left out. Cut-off read from the data, not from the text of the source: active = T/C of 150% or more; inactive = T/C below 125%.

System: L1210 leukemia ip in BDF1 mice, survival T/C
Experiment: NCI In Vivo Anticancer Drug Screen. Data for tumor model L1210 Leukemia (intraperitoneal) in B6D2F1 (BDF1) mice
Conditions: endpoint: mean survival time, higher = longer survival
Summary of the method: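 Transplantable tumor model; survival measured in treated vs vehicle control mice. Value = treated/control.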

[1] = dose: 75.0 mg/kg/injection, schedule: Q01DX009 (ip), vehicle: Klucel (hydroxypropylcellulose) (HPC)
[2] = dose: 150.0 mg/kg/injection, schedule: Q01DX009 (ip), vehicle: Klucel (hydroxypropylcellulose) (HPC)
[3] = dose: 300.0 mg/kg/injection, schedule: Q01DX009 (ip), vehicle: Klucel (hydroxypropylcellulose) (HPC)
[4] = dose: 100.0 mg/kg/injection, schedule: Q01DX009 (ip), vehicle: saline
[5] = dose: 100.0 mg/kg/injection, schedule: Q04DX002 (ip), vehicle: saline
[6] = dose: 200.0 mg/kg/injection, schedule: Q01DX009 (ip), vehicle: saline
[7] = dose: 200.0 mg/kg/injection, schedule: Q04DX002 (ip), vehicle: saline
[8] = dose: 400.0 mg/kg/injection, schedule: Q01DX009 (ip), vehicle: saline
[9] = dose: 400.0 mg/kg/injection, schedule: Q04DX002 (ip), vehicle: saline
[10] = dose: 100.0 mg/kg/injection, schedule: Q01DX001 (ip), vehicle: saline
[11] = dose: 200.0 mg/kg/injection, schedule: Q01DX001 (ip), vehicle: saline
[12] = dose: 100.0 mg/kg/injection, schedule: Q01DX001 (ip), vehicle: other
[13] = dose: 200.0 mg/kg/injection, schedule: Q01DX001 (ip), vehicle: other
[14] = dose: 100.0 mg/kg/injection, schedule: Q01DX009 (ip), vehicle: Klucel (hydroxypropylcellulose) (HPC)
[15] = dose: 200.0 mg/kg/injection, schedule: Q01DX009 (ip), vehicle: Klucel (hydroxypropylcellulose) (HPC)
[16] = dose: 400.0 mg/kg/injection, schedule: Q01DX009 (ip), vehicle: Klucel (hydroxypropylcellulose) (HPC)
[17] = dose: 100.0 mg/kg/injection, schedule: Q01DX009 (ip), vehicle: saline with Tween-80
[18] = dose: 200.0 mg/kg/injection, schedule: Q01DX009 (ip), vehicle: saline with Tween-80
[19] = dose: 100.0 mg/kg/injection, schedule: Q04DX003 (ip), vehicle: saline with Tween-80
[20] = dose: 200.0 mg/kg/injection, schedule: Q04DX003 (ip), vehicle: saline with Tween-80
[21] = dose: 400.0 mg/kg/injection, schedule: Q04DX003 (ip), vehicle: saline with Tween-80
[22] = dose: 400.0 mg/kg/injection, schedule: Q01DX001 (ip), vehicle: saline
[23] = dose: 100.0 mg/kg/injection, schedule: Q04DX003 (ip), vehicle: Klucel (hydroxypropylcellulose) (HPC)
[24] = dose: 400.0 mg/kg/injection, schedule: Q01DX001 (ip), vehicle: other
[25] = dose: 100.0 mg/kg/injection, schedule: Q04DX002 (ip), vehicle: Klucel (hydroxypropylcellulose) (HPC)
[26] = dose: 200.0 mg/kg/injection, schedule: Q04DX002 (ip), vehicle: Klucel (hydroxypropylcellulose) (HPC)
[27] = dose: 400.0 mg/kg/injection, schedule: Q04DX002 (ip), vehicle: Klucel (hydroxypropylcellulose) (HPC)

Measured: T/C

Cc1cc(C)c(-c2c(C)cc(C)c([N+](=O)[O-])c2C)c(C)c1N
inactive: [1] 100 % of control | dose: 75.0 mg/kg/injection, schedule: Q04DX003 (ip), vehicle: Klucel (hydroxypropylcellulose) (HPC) 98 % of control | [2] 105 % of control | dose: 150.0 mg/kg/injection, schedule: Q04DX003 (ip), vehicle: Klucel (hydroxypropylcellulose) (HPC) 101 % of control | [3] 100 % of control | dose: 300.0 mg/kg/injection, schedule: Q04DX003 (ip), vehicle: Klucel (hydroxypropylcellulose) (HPC) 93 % of control

Nc1ccncn1
inactive: dose: 100.0 mg/kg/injection, schedule: Q01DX005 (ip), vehicle: saline 94 % of control | [4] 99 % of control | [5] 96 % of control | dose: 200.0 mg/kg/injection, schedule: Q01DX005 (ip), vehicle: saline 97 % of control | [6] 96 % of control | [7] 96 % of control | dose: 400.0 mg/kg/injection, schedule: Q01DX005 (ip), vehicle: saline 105 % of control | [8] 96 % of control | [9] 100 % of control

O=C(NC1CCCC1)c1ccc(C(=O)NC2CCCC2)cc1
inactive: [10] 91 % of control | [11] 91 % of control

CN(/N=N/c1nc[nH]c1C(=O)NN)C1CCCCC1
inactive: dose: 50.0 mg/kg/injection, schedule: Q01DX001 (ip), vehicle: other 95 % of control | [12] 101 % of control | [13] 98 % of control

Cc1ccc([N+](=O)[O-])cc1NC(=O)Nc1ccc(C(=O)O)cc1
inactive: [14] 90 % of control | [15] 98 % of control | [16] 104 % of control

C[Si](C)(C)c1c(F)c(F)c(F)c(F)c1F
inactive: [17] 102 % of control | [18] 94 % of control | dose: 400.0 mg/kg/injection, schedule: Q01DX009 (ip), vehicle: saline with Tween-80 97 % of control

CN(C)CCCN1CCC2(CC1)C(C#N)C(=O)NC(=O)C2C#N (stereo not given)
inactive: [5] 92 % of control | [7] 100 % of control | [9] 111 % of control

O=C(O)C1C2CC3OC(=O)C1C3C2O (stereo not given)
inactive: [4] 103 % of control | [19] 96 % of control | [6] 94 % of control | [20] 86 % of control | [8] 100 % of control | [21] 86 % of control

CC(C)CC(NC(=O)CNC(=O)CNC(=O)OCc1ccccc1)C(=O)O (stereo not given)
inactive: [19] 100 % of control | [20] 103 % of control | [21] 105 % of control

Clc1cccc2ccc(-c3cc4ccccc4s3)nc12
inactive: dose: 50.0 mg/kg/injection, schedule: Q01DX001 (ip), vehicle: saline 102 % of control | [10] 101 % of control | [11] 101 % of control | [22] 106 % of control

CCN1CCC(S(=O)(=O)CCS(=O)(=O)C2CCN(CC)C2)C1 (stereo not given)
inactive: dose: 100.0 mg/kg/injection, schedule: Q01DX001 (ip), vehicle: carboxymethylcellulose (CMC) 95 % of control | dose: 200.0 mg/kg/injection, schedule: Q01DX001 (ip), vehicle: carboxymethylcellulose (CMC) 94 % of control | dose: 400.0 mg/kg/injection, schedule: Q01DX001 (ip), vehicle: carboxymethylcellulose (CMC) 94 % of control

COC(=O)CCN1CC1(C)C (stereo not given)
inactive: dose: 25.0 mg/kg/injection, schedule: Q04DX003 (ip), vehicle: Klucel (hydroxypropylcellulose) (HPC) 96 % of control | dose: 50.0 mg/kg/injection, schedule: Q04DX003 (ip), vehicle: Klucel (hydroxypropylcellulose) (HPC) 98 % of control | [23] 96 % of control

O=C(Oc1ccccc1)c1ccc2[nH]c(=O)c(C(=O)O)nc2c1
inactive: dose: 25.0 mg/kg/injection, schedule: Q01DX001 (ip), vehicle: saline with Tween-80 96 % of control | dose: 50.0 mg/kg/injection, schedule: Q01DX001 (ip), vehicle: saline with Tween-80 100 % of control | dose: 100.0 mg/kg/injection, schedule: Q01DX001 (ip), vehicle: saline with Tween-80 98 % of control

COc1c2c(c(C(=O)O)c3ccncc13)CC(C)(C)C2
inactive: dose: 50.0 mg/kg/injection, schedule: Q01DX009 (ip), vehicle: saline with Tween-80 102 % of control | [17] 98 % of control | [18] 101 % of control

COc1cc(C(=O)CCC(=O)O)c(OC)c(C)c1C
inactive: [12] 93 % of control | [13] 96 % of control | [24] 91 % of control

Cc1ccc(S(=O)NNc2ccccc2)cc1 (stereo not given)
inactive: [10] 93 % of control | [11] 104 % of control | [22] 93 % of control

COc1cccc(NC(=S)NN(C)C)c1
inactive: [25] 94 % of control | [26] 122 % of control | [27] 112 % of control

CC(=O)c1c(C)cc(C)c(CC(=O)O)c1C
inactive: [1] 104 % of control | [2] 97 % of control | [3] 93 % of control

COc1cc(N)c2ncsc2c1
inactive: [4] 97 % of control | [25] 94 % of control | [6] 102 % of control | [26] 88 % of control | [27] 91 % of control

CCOC(=O)OC1C(OC)OC2COC(c3ccccc3)OC2C1O (stereo not given)
inactive: [25] 91 % of control | [26] 91 % of control | [27] 107 % of control

COC(=O)c1cccc2c1-c1ccccc1C2=O
inactive: [12] 92 % of control | [13] 88 % of control | [24] 97 % of control

O=C1C2CCN(CC2)C1Cc1ccccc1 (stereo not given)
inactive: [5] 111 % of control | [7] 107 % of control

C=CCOC(=O)Nc1cccc2ccccc12
inactive: [25] 91 % of control | [26] 94 % of control | [27] 94 % of control

C=CC(=O)NC(=O)/C=C/c1cccnc1
inactive: [25] 117 % of control | [26] 106 % of control | [27] 120 % of control

NCCc1cnc2ccccc2n1
inactive: dose: 25.0 mg/kg/injection, schedule: Q01DX009 (ip), vehicle: saline 95 % of control | dose: 50.0 mg/kg/injection, schedule: Q01DX009 (ip), vehicle: saline 97 % of control | [4] 96 % of control | dose: 100.0 mg/kg/injection, schedule: Q04DX003 (ip), vehicle: saline 98 % of control

O=[N+]([O-])c1cc(Cl)cc2c1nc(Cl)c1ccccc12
inactive: [14] 94 % of control | [23] 100 % of control | [15] 91 % of control | dose: 200.0 mg/kg/injection, schedule: Q04DX003 (ip), vehicle: Klucel (hydroxypropylcellulose) (HPC) 98 % of control | [16] 91 % of control | dose: 400.0 mg/kg/injection, schedule: Q04DX003 (ip), vehicle: Klucel (hydroxypropylcellulose) (HPC) 100 % of control
